Values quoted from earlier work as cited in patent US10758465B2, “Synephrine compositions” (Follea International, priority 2017, dated 2020).

Assays:
alpha2-adrenoceptors = conditions: postjunctional alpha2-adrenoceptors
alpha1-adrenoceptors = conditions: postjunctional alpha1-adrenoceptors

CNC[C@@H](O)c1ccc(O)cc1 [S-(+)-synephrine]
potency relative to the (−) form (alpha2-adrenoceptors): one to two orders of magnitude less | potency relative to the (−) form (alpha1-adrenoceptors): one to two orders of magnitude less
